The results in this text go back to US20260062426A1, “CYCLIN DEPENDENT KINASE DEGRADERS AND METHODS OF USE THEREOF” (Differentiated Therapeutics Inc, priority 2023, published 2026).

Holding throughout (format): cell-based
The target of one test is T1, CDK9 (Homo sapiens, UniProt P50750).
T1 construct: host or cells: HEK293
As to the kind of experiment: CDK9 HIBIT PQ (protein quantification), degradation. The settings on record: for Dmax / CDK9 HIBIT PQ Max (%): Max = Maximum; for DC50: PQ = Protein Quantification. The method in brief: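 HEK293 cells carrying HiBiT-tagged CDK9 were grown in DMEM with 10% FBS and seeded in 384-well plates at 1.6×10^5 cells/well in 50 uL, then incubated overnight at 37° C and 5% CO2. After compound treatment, CDK9 protein was measured with a HiBiT assay. High control was 0.1% DMSO-treated cells and low control was culture medium only. Maximal degradation, Dmax and DC50 were derived from these readings.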

The next test has as its target T2, CCNE1 (Homo sapiens, UniProt P24864+P24941).
T2 construct: host or cells: HEK293
The experiment in a line: CCNE1 HIBIT PQ (protein quantification), degradation. The settings on record: for CCNE1 HIBIT PQ Max (%): Max = Maximum; for DC50: PQ = Protein Quantification. The method in brief:
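HEK293 cells with HiBiT-tagged CCNE1 were cultured in EMEM containing 10% FBS, plated at 1.6×10⁵ cells/well in 50 uL in 384-well plates and left overnight at 37° C with 5% CO₂. After 6 hours of compound exposure, a HiBiT assay measured CCNE1 protein, with 0.1% DMSO-treated cells as the high control and medium alone as the low control. DC50 and maximal degradation came from these readings.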

For the next test, the target named is T3, CDK2 (Homo sapiens, UniProt P24941).
T3 construct: host or cells: HEK293
As to the kind of experiment: CDK2 HIBIT PQ (protein quantification), degradation. The settings on record: for CDK2 HIBIT PQ Max (%): Max = Maximum; for DC50: PQ = Protein Quantification. The method in brief:
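HEK293 cells bearing HiBiT-tagged CDK2 were cultured in DMEM containing 10% FBS, plated in 384-well plates at 1.6×10^5 cells/well in 50 uL, and kept overnight at 37° C and 5% CO2. Following 6 hours of compound exposure, each well received 20 μL of HiBiT reagent (Nano-Glo HiBiT lytic buffer, lytic substrate, LgBiT protein), and plates were shaken for 20 minutes at room temperature and then read on an EnVision, with 0.1% DMSO as the high control and medium only as the low control. DC50 and maximal degradation were calculated from these readings.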

T1 sequence (P50750 whole entry): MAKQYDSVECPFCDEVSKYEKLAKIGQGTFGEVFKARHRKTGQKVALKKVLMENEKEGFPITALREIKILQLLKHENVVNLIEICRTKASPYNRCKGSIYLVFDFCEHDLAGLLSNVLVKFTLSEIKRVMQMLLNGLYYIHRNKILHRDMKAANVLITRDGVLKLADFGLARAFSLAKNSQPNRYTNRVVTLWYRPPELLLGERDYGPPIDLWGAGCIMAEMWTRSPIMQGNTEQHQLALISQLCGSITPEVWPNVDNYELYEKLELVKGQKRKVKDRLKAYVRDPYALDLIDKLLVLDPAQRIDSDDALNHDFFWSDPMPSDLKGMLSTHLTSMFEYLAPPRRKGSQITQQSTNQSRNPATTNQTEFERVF

The term Dmax denotes the largest share of the target that was removed. A high value points to a fuller loss of target. In general, DC50 refers to the concentration at which degradation of the target reaches its halfway point. A higher DC50 goes with degradation only at high concentration. With `CC(C)Oc1c(-c2cn[nH]c2)ncn2nc(Nc3ccc(S(=O)(=O)c4cccc(C(C)N5CCC(c6ccc7c(N8CCC(=O)NC8=O)nn(C)c7c6)CC5)c4)cc3F)nc12` (racemic) [Compound 85], at CDK9, the Dmax was determined as 82% and half-maximal degradation (DC50) was put at 12 nM. Besides, on CCNE1, the “CCNE1 HIBIT PQ Max (%)” value is 80% and the DC50 turned out to be 9.64 nM. Also, on CDK2, the “CDK2 HIBIT PQ Max (%)” value is on record as 93% and the DC50 was determined as 1.5 nM.
As to `CC(C)Oc1c(-c2cn[nH]c2)ncn2nc(Nc3ccc(S(=O)(=O)N4CCCC(CN5CC(c6ccc7c(N8CCC(=O)NC8=O)nn(C)c7c6)C5)C4)cc3F)nc12` (racemic) [Compound 86], the Dmax on CDK9 turned out to be 20%. Moreover, the “CCNE1 HIBIT PQ Max (%)” value on CCNE1 stood at 38%. In addition, at CDK2, the “CDK2 HIBIT PQ Max (%)” value is 56% and the DC50 was 1.3 nM.
Take `CC(C)Oc1c(-c2cn[nH]c2)ncn2nc(Nc3ccc(S(=O)(=O)N4CCCC(CN5CCC(c6ccc7c(N8CCC(=O)NC8=O)nn(C)c7c6)CC5)C4)cc3F)nc12` (racemic) [Compound 87, rac-(R)-1-(6-(1-((1-((3-fluoro-4-((8-isopropoxy-7-(1H-pyrazol-4-yl)-[1,2, 4]triazolo[1,5-c]pyrimidin-2-yl)amino)phenyl)sulfonyl)piperidin-3-yl)methyl)piperidin-4-yl)-1-methyl-1H-indazol-3-yl)dihydropyrimidine-2,4(1H,3H)-dione]: on CDK9, the Dmax came out at 72% and it took 3.32 nM to reach half-maximal degradation (DC50). On CCNE1, the “CCNE1 HIBIT PQ Max (%)” value is recorded as 79% and half-maximal degradation (DC50) was put at 1.4 nM. Also, at CDK2, the “CDK2 HIBIT PQ Max (%)” value came out at 90% and the DC50 was 0.4 nM.
`CC(C)Oc1c(-c2cn[nH]c2)ncn2nc(Nc3ccc(S(=O)(=O)N4CCC[C@H](CN5CC[C@H](c6ccc7c(N8CCC(=O)NC8=O)nn(C)c7c6)CC5(C)C)C4)cc3F)nc12` (relative stereo) [Compound 97, rel-1-(6-((R)-1-(((S)-1-((3-fluoro-4-((8-isopropoxy-7-(1H-pyrazol-4-yl)-[1,2,4]triazolo[1,5-c]pyrimidin-2-yl)amino)phenyl)sulfonyl)piperidin-3-yl)methyl)-2,2-dimethylpiperidin-4-yl)-1-methyl-1H-indazol-3-yl)dihydropyrimidine-2,4(1H,3H)-dione] yielded a Dmax at CDK9 of 19%. In addition, the “CCNE1 HIBIT PQ Max (%)” value on CCNE1 worked out at 41%. At CDK2, the “CDK2 HIBIT PQ Max (%)” value came out at 68% and the DC50 was 0.6 nM.
For the compound `CC(C)Oc1c(-c2cn[nH]c2)ncn2nc(Nc3ccc(S(=O)(=O)N4CCCC(CN5CCC(c6ccc7c(N8CCC(=O)NC8=O)nn(C)c7c6)CC5)C4)cc3F)nc12` (single isomer, unassigned) [Compound 94], on CDK9, the Dmax was determined as 88% and the DC50 is 5.2 nM. For the same compound, on CCNE1, the “CCNE1 HIBIT PQ Max (%)” value came out at 89% and the DC50 was determined as 1.55 nM. Also, on CDK2, the “CDK2 HIBIT PQ Max (%)” value was 92% and the DC50 is 0.3 nM.
As to `CC(C)Oc1c(-c2cn[nH]c2)ncn2nc(Nc3ccc(S(=O)(=O)N4CCCC(CN5CCC(c6ccc7c(N8CCC(=O)NC8=O)nn(C)c7c6)CC5)C4)cc3F)nc12` (single isomer, unassigned) [Compound 95], at CDK9, the “CDK9 HIBIT PQ Max (%)” value is 71% and it took 7.24 nM to reach half-maximal degradation (DC50). Also, on CCNE1, the “CCNE1 HIBIT PQ Max (%)” value is 67% and the DC50 was found to be 1.02 nM. For the same compound, at CDK2, the “CDK2 HIBIT PQ Max (%)” value was determined as 83% and it took 0.5 nM to reach half-maximal degradation (DC50).
On to `CC(C)Oc1c(-c2cn[nH]c2)ncn2nc(Nc3ccc(S(=O)(=O)N4CCC[C@H](CN5CC[C@@H](c6ccc7c(N8CCC(=O)NC8=O)nn(C)c7c6)CC5(C)C)C4)cc3F)nc12` (single isomer, unassigned) [Compound 96], for which, on CDK9, the Dmax came out at 80% and the DC50 amounted to 8.05 nM. Moreover, on CCNE1, the “CCNE1 HIBIT PQ Max (%)” value is recorded as 75% and half-maximal degradation (DC50) was put at 3.16 nM. Further, on CDK2, the “CDK2 HIBIT PQ Max (%)” value is 87% and the DC50 was 1 nM.
As for `CC(C)Oc1c(-c2cn[nH]c2)ncn2nc(Nc3ccc(S(=O)(=O)c4cccc(C(C)N5CCN(c6ccc7c(N8CCC(=O)NC8=O)nn(C)c7c6)CC5)c4)cc3F)nc12` (single isomer, unassigned) [Compound 98], on CDK9, the Dmax is 78% and the DC50 was found to be 34.8 nM. For the same compound, on CCNE1, the “CCNE1 HIBIT PQ Max (%)” value is listed as 67% and it took 12.7 nM to reach half-maximal degradation (DC50). Besides, at CDK2, the “CDK2 HIBIT PQ Max (%)” value stood at 95% and the DC50 was 2.3 nM.
As for `CC(C)Oc1c(-c2cn[nH]c2)ncn2nc(Nc3ccc(S(=O)(=O)c4cccc(C(C)N5CCN(c6ccc7c(N8CCC(=O)NC8=O)nn(C)c7c6)CC5)c4)cc3F)nc12` (single isomer, unassigned) [Compound 99], at CDK9, the “CDK9 HIBIT PQ Max (%)” value came to 64% and the DC50 was found to be 37.3 nM. Further, on CCNE1, the “CCNE1 HIBIT PQ Max (%)” value was found to be 52% and the DC50 was determined as 10.2 nM. At CDK2, the “CDK2 HIBIT PQ Max (%)” value was 94% and it took 3 nM to reach half-maximal degradation (DC50).
`CC(C)Oc1c(-c2cn[nH]c2)ncn2nc(Nc3ccc(S(=O)(=O)c4cccc(C(C)N5CCC(c6ccc7c(N8CCC(=O)NC8=O)nn(C)c7c6)CC5)c4)cc3F)nc12` (single isomer, unassigned) [Compound 100]: at CDK9, the maximal degradation (Dmax) was 86% and the DC50 worked out at 12.4 nM. For the same compound, on CCNE1, the “CCNE1 HIBIT PQ Max (%)” value was found to be 80% and the DC50 worked out at 14.3 nM. On CDK2, the “CDK2 HIBIT PQ Max (%)” value is listed as 90% and the DC50 is 2.9 nM.
For `CC(C)Oc1c(-c2cn[nH]c2)ncn2nc(Nc3ccc(S(=O)(=O)c4cccc(C(C)N5CCC(c6ccc7c(N8CCC(=O)NC8=O)nn(C)c7c6)CC5)c4)cc3F)nc12` (single isomer, unassigned) [Compound 101], at CDK9, the “CDK9 HIBIT PQ Max (%)” value is reported as 82% and half-maximal degradation (DC50) was put at 10.6 nM. Moreover, on CCNE1, the “CCNE1 HIBIT PQ Max (%)” value turned out to be 77% and the DC50 came to 13.9 nM. For the same compound, at CDK2, the “CDK2 HIBIT PQ Max (%)” value is given as 90% and the DC50 was determined as 2.6 nM.
Regarding `CC(C)Oc1c(-c2cn[nH]c2)ncn2nc(Nc3ccc(S(=O)(=O)N4CCC[C@H](CN5CC[C@@H](c6ccc7c(N8CCC(=O)NC8=O)nn(C)c7c6)CC5(C)C)C4)cc3F)nc12` (single isomer, unassigned) [Compound 102], at CDK9, the “CDK9 HIBIT PQ Max (%)” value was 75% and it took 5.65 nM to reach half-maximal degradation (DC50). On CCNE1, the “CCNE1 HIBIT PQ Max (%)” value is on record as 76% and half-maximal degradation (DC50) was put at 1.34 nM. On CDK2, the “CDK2 HIBIT PQ Max (%)” value is given as 90% and the DC50 came out at 0.5 nM.
At CDK9, `CC(C)Oc1c(-c2cn[nH]c2)ncn2nc(Nc3ccc(S(=O)(=O)N4CCC[C@@H](CN5CC[C@H](c6ccc7c(N8CCC(=O)NC8=O)nn(C)c7c6)CC5(C)C)C4)cc3F)nc12` (single isomer, unassigned) [Compound 103] registered a Dmax of 92% and a DC50 of 4.01 nM. Further, at CCNE1, the “CCNE1 HIBIT PQ Max (%)” value is 83% and it took 1.96 nM to reach half-maximal degradation (DC50). At CDK2, the “CDK2 HIBIT PQ Max (%)” value is recorded as 90% and the DC50 is 1 nM.
Compound `CC(C)Oc1c(-c2cn[nH]c2)ncn2nc(Nc3ccc(S(=O)(=O)N4CCC[C@H](CN5CC[C@H](c6ccc7c(N8CCC(=O)NC8=O)nn(C)c7c6)CC5(C)C)C4)cc3F)nc12` (single isomer, unassigned) [Compound 104] returned a Dmax at CDK9 of 13%. The “CCNE1 HIBIT PQ Max (%)” value at CCNE1 was determined as 48%. Further, at CDK2, the “CDK2 HIBIT PQ Max (%)” value stood at 75% and the DC50 was found to be 1 nM.
As for `CC(C)Oc1c(-c2cn[nH]c2)ncn2nc(Nc3ccc(S(=O)(=O)N4CCC[C@@H](CN5CC[C@@H](c6ccc7c(N8CCC(=O)NC8=O)nn(C)c7c6)CC5(C)C)C4)cc3F)nc12` (single isomer, unassigned) [Compound 105], the maximal degradation (Dmax) on CDK9 came to 25%. Moreover, the “CCNE1 HIBIT PQ Max (%)” value at CCNE1 was 24%. On CDK2, the “CDK2 HIBIT PQ Max (%)” value was determined as 63% and half-maximal degradation (DC50) was put at 0.9 nM.
Consider `CC(C)Oc1c(-c2cn[nH]c2)ncn2nc(Nc3ccc(S(=O)(=O)c4cccc(C[C@H]5C[C@@H](c6ccc7c(c6)CN([C@@H]6CCC(=O)NC6=O)C7=O)C5)c4)cc3F)nc12` (stereo in doubt) [Compound 79, (R)-3-(5-((1r,3S)-3-(3-((3-fluoro-4-((8-isopropoxy-7-(1H-pyrazol-4-yl)-[1,2,4]triazolo[1,5-c]pyrimidin-2-yl)amino)phenyl)sulfonyl)benzyl)cyclobutyl)-1-oxoisoindolin-2-yl)piperidine-2,6-dione], for which the Dmax on CDK9 came out at 26%. Besides, at CCNE1, the “CCNE1 HIBIT PQ Max (%)” value is 84% and the DC50 worked out at 13.1 nM. On CDK2, the “CDK2 HIBIT PQ Max (%)” value is 96% and the DC50 came out at 5.9 nM.
The corresponding values for `CC(C)Oc1c(-c2cn[nH]c2)ncn2nc(Nc3ccc(S(=O)(=O)c4cccc(C[C@H]5C[C@H](c6ccc7c(c6)CN([C@@H]6CCC(=O)NC6=O)C7=O)C5)c4)cc3F)nc12` (stereo in doubt) [Compound 80, (R)-3-(5-((1s,3R)-3-(3-((3-fluoro-4-((8-isopropoxy-7-(1H-pyrazol-4-yl)-[1,2,4]triazolo[1,5-c]pyrimidin-2-yl)amino)phenyl)sulfonyl)benzyl)cyclobutyl)-1-oxoisoindolin-2-yl)piperidine-2,6-dione] are 49%, 85%, 20.3 nM, 98% and 3.9 nM.
